Laboratory results as given in patent US6555558B2, “Oral dosage self-emulsifying formulations of pyranone protease inhibitors” (priority 2000, dated 2003).

Columns and labels:
HIV protease = target: T1, HIV protease (Human immunodeficiency virus type 1 group M subtype B, UniProt P04585); conditions: in vitro enzymatic inhibition; cited from earlier work
T1 construct: one of the smallest enzymes yet characterized (consisting of only 99 amino acids)

[1] = test system: isolates resistant to indinavir, ritonavir and nelfinavir; saquinavir resistance; conditions: cited from earlier work
[2] = test system: HIV-1 variants resistant to the peptidomimetic protease inhibitors; conditions: cited from earlier work
[3] = cited from earlier work
HIV = conditions: antiviral cell culture; cited from earlier work
[4] = test system: viral aspartate proteases of a variety of HIV type 1 laboratory strains and clinical isolates; conditions: including those resistant to zidovudine and delavirdine; cited from earlier work
[5] = test system: clinical isolates with a wide range of resistance to currently available peptidomimetic protease inhibitors; conditions: 105 viruses with more than tenfold resistance to three or four proteinase inhibitors, average 6.1 protease mutations; cited from earlier work
[6] = free acid form; pH of from about 6 to about 7; cited from earlier work
[7] = solubility in polyethylene glycols; assay type: physicochemical; conditions: polyethylene glycols within a defined average molecular weight range
Protocol: Microemulsion phase diagrams were constructed for systems containing various lipophilic phases, hydrophilic phases, and surfactants. After numerous studies it was determined that a number of pyranone protease inhibitors, including tipranavir, were soluble in polyethylene glycols within a defined average molecular weight range, and could be used to replace propylene glycol and ethanol found in conventional microemulsion formulations of such drugs.

Which Ki (HIV protease) does the source give for CCC[C@@]1(CCc2ccccc2)CC(O)=C([C@H](CC)c2cccc(NS(=O)(=O)c3ccc(C(F)(F)F)cn3)c2)C(=O)O1 [tipranavir] here?
Its Ki is ~0.008 nM.

What about the “antiviral activity against isolates resistant to indinavir, ritonavir and nelfinavir” value [1] of the same compound?
Its value is “retain sustained antiviral activity”.

And the “activity against HIV-1 variants resistant to peptidomimetic protease inhibitors” value [2]?
The value was “highly active”.

And the “Log P” value [3]?
The value was “about 6.1”.

What about the IC90 (HIV) of the same compound?
Its IC90 is ~100 nM.

And the “potency against viral aspartate proteases” value [4]?
Its value is “excellent potency”.

What about the “share of resistant viruses susceptible” value [5] of the same compound?
Its value is “ninety”.

And the aqueous solubility [6]?
The aqueous solubility was “about 10 μg/ml”.

And the “solubility in polyethylene glycols” value [7]?
The value was “soluble”.
